Assay results as given in patent publication US7825134B2, “Amelioration of cataracts, macular degeneration and other ophthalmic diseases” (Othera Holding, Inc., priority 2003, dated 2010).
Entries after “also recorded” stand apart in the source; their conditions may differ. Structures can show the parent of a compound that is named as a salt. Values belong to the compound of their own block, whether it stands above or below them.

What was measured:
[1] = Aqueous solubility at room temperature; assay type: physicochemical; conditions: thermodynamic from solid
From the text: It may be preferred that at least 0.1% solubility is needed for an eye drop, even for a suspension formulation. Completely water-insoluble compounds may not be effective. Esters that are soluble in water (>0.1% weight by volume) are preferred. Esters with less than 0.1% solubility may be used in the form of suspensions or ointments or other formulations. […]

[2] = Drug penetration of organ cultured rat lenses (ESR); assay type: in vitro ADME, Sprague-Dawley rats; conditions: for Concentration of tempol-H in lens water: Sprague-Dawley, rat, 4 mM
Procedure: Method: Rat lenses were cultured as follows: Rat lenses were obtained from Sprague-Dawley rats. The lenses were incubated in 24-well cluster dishes in modified TC-199 medium and were placed in a 37° C. incubator with a 95% air/5% CO2 atmosphere. The lenses were incubated in 2 ml of culture medium, which was adjusted to 300 milliosmoles (mOsm). […] In one experiment, lenses were incubated for 4 hours and dissected into epithelial, cortical and nuclear sections before analysis.

[3] = Identification of metabolites of Compound 1 in rabbit aqueous humor (GC/MS); assay type: in vivo; conditions: GC/MS of rabbit aqueous humor after topical dosing
Procedure: Aqueous humor samples, from the in vivo rabbit study described in Example 16 were identified by GC/MS for the presence of compound 1 and its metabolites, tempol-H and carboxylic acid (R1COOH), formed by hydrolysis of compound 1 by ocular esterases. Both the metabolites were observed but not Compound 1.
A sample of aqueous humor was freeze dried in a 10 mL amber colored glass vial containing a tiny magnetic bar. To this was added 1 mL of methylene chloride and the solution was stirred for two minutes and allowed to stand for five minutes. A 3 μL aliquot of the methylene chloride layer was injected into the GC column. The cyclopropanecarboxylic acid was detected by a mass spectrometer detector at 13.02 (retention time) with m/z=85 (GC model […] series II (both made by HP)). Agilent DB-5 column 25 m length, 0.2 mm diameter was used. Carrier gas He at 22 cm/sec. Inlet temperature was 250° C., detector 280° C. For every injection, the temperature was held at 35° C. for 5 minutes, then was increased to 240° C. at 10° C./min, and was held at 240° C. for 3 minutes. Splitless injection was used.

rabbit eyes = experiment: Tolerance in vivo in rabbit eyes; set-up: species or system rabbits
Procedure: Eyedrops containing 3.5% compound 1 were administered six times, at 1-hour intervals, to each eye of two conscious rabbits.
It was previously established that dosing rabbits with a 3% solution of Compound 1, 4 times daily, for one week caused no toxicity.

[4] = Pharmacokinetics and ocular tissue distribution of total radioactivity after single topical dose; assay type: in vivo, New Zealand White (Harlan) rabbits
Procedure: Pharmacokinetics, Ocular Tissue Distribution, and Urinary Excretion of Total Radioactivity Following Single Topical Dose Administration of Compound 1 in Rabbits. The pharmacokinetics, ocular tissue distribution and urinary excretion of total radioactivity following a single topical dose administration of the tritiated hydrochloride of Compound 1 in rabbits was evaluated. Eighteen male New Zealand White (Harlan) rabbits, age 3-6 months, weight 2.1 to 3.0 kg were utilized.
Experimental Design: The experimental design was a randomized, single-treatment study in one group of rabbits administered a single topical application of [^3H]Compound 1-HCl into both eyes. The group consisted of 6 subgroups of 3 animals. At six specified times (0.5, 1, 2, 4, 8 and 24 hours) post-dose, three animals per subgroup were euthanized and terminal samples collected. Animals designated to the 24 hour post-dose subgroup were placed in metabolism cages and urine was collected from 0-12 and 12-24 hours post-dose. Terminal blood was collected by cardiac puncture technique. From each eye, the following ocular tissues were harvested: aqueous humor; vitreous humor; lens; and cornea. Total radioactivity was determined in all samples.
Animals received a single topical ocular dose in each eye, right (OD) followed by left (OS). While slightly pulling away the lower eyelid from the globe, the dose was accurately pipetted onto the cornea and allowed to collect in the lower conjunctival sac. The eyelids were gently held shut for 1 minute after drug instillation and then carefully released.
Data analysis and statistical evaluation: Counts per minute for all assayed samples were converted to disintegrations per minute (DPM) using a Beckman LS6000 counter. Following appropriate background subtraction, DPM values were converted to concentrations (DPM per ml or g). Average DPM per ml or g values were calculated. Mean concentration values of ^3H radioactivity were calculated and converted to equivalents per ml or g based on the measured specific activity and nominal concentration of the administered test article formulation as determined by oxidation. Concentrations of total radioactivity in blood and plasma, amount (% of dose) and concentration in ocular tissue and urine samples were determined. Elimination kinetics including blood, plasma, and tissue half-lives were calculated. Urinary excretion data were also tabulated. Statistical evaluation consisted of descriptive statistical analysis. Pharmacokinetics of radioactivity were evaluated by model independent analyses pending suitability of sample assay results. Non-truncated numerical values were used in the calculations.

[5] = Measured octanol/water partition coefficient; assay type: physicochemical
From the text: Esters are selected for these tests based on their calculated or measured octanol/water partition coefficient (P). Hydrophilic compounds such as tempol-H cannot penetrate the lipophilic epithelial layer of the cornea. Partition coefficients of tempol-H and esters that penetrate are as follows: […]

[6] = Absorption across the cornea: aqueous humor tempol-H after topical eye drops (ESR); assay type: in vivo, New Zealand White rabbits; conditions: all time points (30, 60, 120 minutes) after topical 3.5% solution
Procedure: Groups of six New Zealand White rabbits were used in the study to evaluate the absorption of tempol-H and compound 1. The test compounds were prepared in sterile saline solutions at a concentration of 3.5% weight by volume. The animals were held in restraining boxes during instillation of eye drops, 50 μL in each eye, using a micropipette. After dosing, the eye was gently held closed for 60 seconds. The rabbits were dosed twice daily for 4 consecutive days. On the fifth day, rabbits were dosed once and then euthanized at 30 minutes post dose (2 rabbits), 60 minutes post-dose (2 rabbits) and at 120 minutes post-dose (2 rabbits). Immediately after euthanization, aqueous humor was collected from each rabbit. The aqueous concentration of tempol-H in each sample was measured using the electron spin resonance (ESR) method.

[7] = test system: ARPE-19 cells that have accumulated A2E; experiment: Protection against A2E-mediated blue light damage in RPE cells; assay type: cell-based; conditions: 24 hours pre-treatment; 430+/−20 nm light; MTT and two-color fluorescence assays; FIG. 3 and FIG. 4
Procedure: Materials and Methods: ARPE-19 cells that have accumulated A2E in culture were exposed to 430+/−20 nm light delivered from a halogen source. This wavelength of light is relevant since (i) the excitation maximum of A2E is approximately 430 nm, and (ii) light of this wavelength reaches the RPE in vivo while light of wavelengths […] by the cornea and lens. Cell death in blue light-illuminated A2E-laden RPE was compared with and without pre-treatment (24 hours) with tempol-H. The loss of cell viability was quantified by: • 1. A calorimetric microtiter assay based on ability of healthy metabolically active cells to cleave the yellow tetrazolium salt MTT to purple formazan crystals. Cell viability was assessed 24 hours after blue light illumination. Triplicate wells were assayed in each of 2 experiments. • 2. Two-color fluorescence assay in which the nuclei of all dead cells appear red due to staining by a membrane-impermeant dye (Dead Red nuclei acid stain, Molecular Probes) with the nuclei of all cells stained blue with DAPI. Cell viability was assessed 8 hours after blue light illumination. Replicates were assayed by counting cells within 5 microscopic fields within the area of illumination in each well and 3 wells were assayed per experiment. Data are based on of 3 experiments.

[8] = 30 minutes post-dose, single drop (40 ul) of 3% solution, total radioactivity

Structure (SMILES): CC1(C)CC(O)CC(C)(C)N1[O] [tempol]
- Share in the oxidized form in the epithelium ([2]; 4-hour incubation with tempol): about 5%
- Oxidized form tempol found in the lens ([2]; after incubation with 4.0 mM tempol): ≤ 5%

Structure (SMILES): CC1(C)CC(OC(=O)c2ccco2)CC(C)(C)N1O.Cl
- melting point: 209.4 to 210.4 °C

Structure (SMILES): CC1(C)CC(OC(=O)C2CC2)CC(C)(C)N1O.Cl [Compound 1, 1-hydroxy-4-cyclopropanecarbonyloxy-2,2,6,6-tetramethylpiperidine Hydrochloride]
- Conversion to metabolites (tempol-H and carboxylic acid) in aqueous humor [3]: completely converted to its metabolites
- Toxicity (rabbit eyes; 3% solution, 4 times daily, for one week): no toxicity
- Ocular tolerance (rabbit eyes; eyedrops 3.5%, six times at 1-hour intervals, each eye of two conscious rabbits): well tolerated and no adverse findings were noted
- solubility ([1]; 0.01 M acetate buffer, pH 4.8, aqueous buffer, 0.01 M Acetate buffer at pH 4.8, room temperature): 68.6 mg/mL
- solubility ([1]; 0.01 M citrate buffer, pH 4.8, aqueous buffer, 0.01 M Citrate buffer at pH 4.8, room temperature): 71.1 mg/mL
- solubility ([1]; 0.9% sodium chloride, saline or isotonic, room temperature): 40.5 mg/mL
- solubility ([1]; water with 1% w/v glycerin, water, Water + 1% w/v glycerin, room temperature): 62.2 mg/mL
- solubility ([1]; water with 1% w/v propylene glycol, water, Water + 1% w/v propylene glycol, room temperature): 63.8 mg/mL
- solubility ([1]; water, room temperature): 74.9 mg/mL
- Peak concentration, Blood [4, 8]: 240 nanogram equivalents/gram
- Peak concentration, Plasma [4, 8]: 360 nanogram equivalents/gram
- Peak tissue concentration, Aqueous [4, 8]: 5930 nanogram equivalents/gram
- Peak tissue concentration, Cornea [4, 8]: 13090 nanogram equivalents/gram
- Peak tissue concentration, Lens [4, 8]: 310 nanogram equivalents/gram
- Peak tissue concentration, Vitreous [4, 8]: 150 nanogram equivalents/gram
- Radioactivity in tissues at 24 hours post-dose ([4]; all tissues, FIG. 2): still measurable in all tissues

Structure (SMILES): CC1(C)CC(O)CC(C)(C)N1O [Tempol-H, 1,4-dihydroxy-2,2,6,6-tetramethylpiperidine]
- P (measured) [5]: 0.5
- Concentration of tempol-H in lens water ([2]; 1 h): 400 µM
- Concentration of tempol-H in lens water ([2]; 2 h): 800 µM
- Concentration of tempol-H in lens water ([2]; 4 h): 1000 µM
- Aqueous humor levels of tempol-H [6]: below detectable limits
- Protection against the death of blue light-illuminated A2E-laden RPE [7]: dose-dependent protection; also recorded: protect

More lines, now with the values ahead:

- solubility ([1]; water, room temperature): ≥ 1 mg/mL
- melting point: 215 to 220 °C (dec.)
Structure (SMILES): CC1(C(=O)OC2CC(C)(C)N(O)C(C)(C)C2)CC1.Cl [Example 12, 1-hydroxy-4-(1-methyl-cyclopropane)carbonyloxy-2,2,6,6-tetramethylpiperidine Hydrochloride]

- solubility ([1]; water, room temperature): > 35 mg/mL
Structure (SMILES): CC(C)(CO)C(=O)OC1CC(C)(C)N(O)C(C)(C)C1 [Example 10, 1-hydroxy-4-(3′-hydroxy-2′,2′-dimethyl)propanecarbonyloxy-2,2,6,6-tetramethylpiperidine Hydrochloride]

- solubility ([1]; water, room temperature): > 35 mg/mL
Structure (SMILES): CC1(C)CC(OC(=O)C2CCOC2)CC(C)(C)N1O.Cl (stereo not drawn) [Example 16, 1-hydroxy-4-(3′-tetrahydrofuran)carbonyloxy-2,2,6,6-tetramethylpiperidine Hydrochloride]

- melting point: 140 to 142 °C (dec.)
Structure (SMILES): CCOCC(C)(C)C(=O)OC1CC(C)(C)N(O)C(C)(C)C1.Cl
